Measured values: US10681909B2, “Herbicidal triazoles” (FMC Corporation, priority 2014, dated 2020)

How the values were obtained:
[1] = tested on: pigweed, palmer; experiment: Test E postemergence; format: in vivo, Amaranthus palmeri; conditions: scale 0 to 100
Excerpt: (§1) Seeds of plant species selected from corn (Zea mays), soybean (Glycine max), lambsquarters (Chenopodium album), poinsettia, wild (wild poinsettia, Euphorbia heterophylla), pigweed, palmer (palmer pigweed, Amaranthus palmeri), waterhemp (common waterhemp, Amaranthus rudis), surinam grass (Brachiaria decumbens), crabgrass, large (large crabgrass, Digitaria sanguinalis), crabgrass, Brazilian (Brazilian crabgrass, Digitaria horizontalis), panicum, fall (fall panicum, Panicum dichotomiflorum), foxtail, giant (giant foxtail, Setaria faberii), foxtail, green (green foxtail, Setaria viridis), goosegrass (Eleusine indica), johnsongrass (Sorghum halepense), ragweed (common ragweed, Ambrosia elatior), barnyardgrass (Echinochloa crus-galli), sandbur (southern sandbur, Cenchrus echinatus), arrowleaf sida (Sida rhombifolia), ryegrass, Italian (Italian ryegrass, Lolium multiflorum), dayflower, VA (Virginia dayflower, Commelina virginica), field bindweed (Convolvulus arvensis), cocklebur (common cocklebur, Xanthium strumarium), morningglory (Ipomoea coccinea), nightshade (eastern black nightshade, Solanum ptycanthum), kochia (Kochia scoparia), nutsedge, yellow (yellow nutsedge, Cyperus esculentus), smartweed (ladysthumb smartweed, Polygonum persicaria), velvetleaf (Abutilon theophrasti), horseweed (Conyza canadensis), and beggarticks (hairy beggarticks, Bidens pilosa), were planted into a silt loam soil and treated preemergence with test chemicals formulated in a non-phytotoxic solvent mixture which included a surfactant.
(§2) At the same time, plants from these crop and weed species and also waterhemp_RES1, (ALS & Triazine resistant common waterhemp, Amaranthus rudis), and waterhemp_RES2, (ALS & HPPD resistant common waterhemp, Amaranthus rudis) were planted in pots containing Sunshine Redi-Earth® planting medium comprising spaghnum peat moss, vermiculite, starter nutrients and dolomitic limestone were treated with postemergence applications of test chemicals formulated in the same manner. Plants ranged in height from 2 to 18 cm for postemergence treatments (1- to 4-leaf stage). Treated plants and controls were maintained in a greenhouse for 14 to 21 d, after which time all species were compared to controls and visually evaluated. Plant response ratings, summarized in Table E, are based on a scale of 0 to 100 where 0 is no effect and 100 is complete control. A dash (-) response means no test result.

[2] = tested on: dayflower, VA; experiment: Test E preemergence; format: in vivo, Commelina virginica; conditions: scale 0 to 100
Method in brief: (§3)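 Visual rating vs untreated controls, 0 = no effect, 100 = complete control, 14–21 d after treatment in greenhouse. Pre: silt loam soil, sprayed at planting. Post: peat/vermiculite medium, plants 2–18 cm, 1–4 leaves. Solvent + surfactant formulation.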

[3] = tested on: sandbur; experiment: Test E postemergence; format: in vivo, Cenchrus echinatus; conditions: scale 0 to 100
Excerpt: as §1, §2

[4] = tested on: panicum, fall; experiment: Test E postemergence; format: in vivo, Panicum dichotomiflorum; conditions: scale 0 to 100
Excerpt: as §1, §2

[5] = tested on: morningglory; experiment: Test E preemergence; format: in vivo, Ipomoea coccinea; conditions: scale 0 to 100
Method in brief: as §3

[6] = tested on: beggarticks; experiment: Test E preemergence; format: in vivo, Bidens pilosa; conditions: scale 0 to 100
Method in brief: as §3

[7] = tested on: beggarticks; experiment: Test E postemergence; format: in vivo, Bidens pilosa; conditions: scale 0 to 100
Excerpt: as §1, §2

[8] = tested on: corn; experiment: Test E preemergence; format: in vivo, Zea mays; conditions: scale 0 to 100
Method in brief: as §3

[9] = tested on: crabgrass, large; experiment: Test E preemergence; format: in vivo, Digitaria sanguinalis; conditions: scale 0 to 100
Method in brief: as §3

[10] = tested on: ragweed; experiment: Test E postemergence; format: in vivo, Ambrosia elatior; conditions: scale 0 to 100
Excerpt: as §1, §2

[11] = tested on: ragweed; experiment: Test E preemergence; format: in vivo, Ambrosia elatior; conditions: scale 0 to 100
Method in brief: as §3

[12] = tested on: goosegrass; experiment: Test E preemergence; format: in vivo, Eleusine indica; conditions: scale 0 to 100
Method in brief: as §3

[13] = tested on: barnyardgrass; experiment: Test E postemergence; format: in vivo, Echinochloa crus-galli; conditions: scale 0 to 100
Excerpt: as §1, §2

[14] = tested on: crabgrass, Brazilian; experiment: Test E preemergence; format: in vivo, Digitaria horizontalis; conditions: Brazil, scale 0 to 100
Method in brief: as §3

[15] = tested on: soybean; experiment: Test E preemergence; format: in vivo, Glycine max; conditions: scale 0 to 100
Method in brief: as §3

[16] = tested on: barnyardgrass; experiment: Test E preemergence; format: in vivo, Echinochloa crus-galli; conditions: scale 0 to 100
Method in brief: as §3

[17] = tested on: kochia; experiment: Test E postemergence; format: in vivo, Kochia scoparia; conditions: scale 0 to 100
Excerpt: as §1, §2

[18] = tested on: surinam grass; experiment: Test E preemergence; format: in vivo, Brachiaria decumbens; conditions: scale 0 to 100
Method in brief: as §3

[19] = tested on: crabgrass, Brazilian; experiment: Test E postemergence; format: in vivo, Digitaria horizontalis; conditions: Brazil, scale 0 to 100
Excerpt: as §1, §2

[20] = tested on: kochia; experiment: Test E preemergence; format: in vivo, Kochia scoparia; conditions: scale 0 to 100
Method in brief: as §3

SMILES: Fc1ccc(-c2nc(OCC(F)(F)F)n(Cc3ccnc(C(F)(F)F)c3)n2)cc1 [Compound 30]
- Plant response rating ([1]; 31 g ai/ha): 95
- Plant response rating ([1]; 62 g ai/ha): 100
- Plant response rating ([1]; 125 g ai/ha): 100
- Plant response rating ([1]; 250 g ai/ha): 100
- Plant response rating ([2]; 31 g ai/ha): 5
- Plant response rating ([2]; 62 g ai/ha): 10
- Plant response rating ([2]; 125 g ai/ha): 25
- Plant response rating ([2]; 250 g ai/ha): 65
- Plant response rating ([3]; 31 g ai/ha): 20
- Plant response rating ([3]; 62 g ai/ha): 30
- Plant response rating ([3]; 125 g ai/ha): 30
- Plant response rating ([3]; 250 g ai/ha): 35
- Plant response rating ([4]; 31 g ai/ha): 20
- Plant response rating ([4]; 62 g ai/ha): 30
- Plant response rating ([4]; 125 g ai/ha): 35
- Plant response rating ([4]; 250 g ai/ha): 30
- Plant response rating ([5]; 31 g ai/ha): 25
- Plant response rating ([5]; 62 g ai/ha): 15
- Plant response rating ([5]; 125 g ai/ha): 15
- Plant response rating ([5]; 250 g ai/ha): 65
- Plant response rating ([6]; 31 g ai/ha): 0
- Plant response rating ([6]; 62 g ai/ha): 10
- Plant response rating ([6]; 125 g ai/ha): 20
- Plant response rating ([6]; 250 g ai/ha): 50
- Plant response rating ([7]; 31 g ai/ha): 50
- Plant response rating ([7]; 62 g ai/ha): 60
- Plant response rating ([7]; 125 g ai/ha): 70
- Plant response rating ([7]; 250 g ai/ha): 75
- Plant response rating ([8]; 31 g ai/ha): 0
- Plant response rating ([8]; 62 g ai/ha): 0
- Plant response rating ([8]; 125 g ai/ha): 0
- Plant response rating ([8]; 250 g ai/ha): 50
- Plant response rating ([9]; 31 g ai/ha): 98
- Plant response rating ([9]; 62 g ai/ha): 98
- Plant response rating ([9]; 125 g ai/ha): 100
- Plant response rating ([9]; 250 g ai/ha): 100
- Plant response rating ([10]; 31 g ai/ha): 65
- Plant response rating ([10]; 62 g ai/ha): 70
- Plant response rating ([10]; 125 g ai/ha): 75
- Plant response rating ([10]; 250 g ai/ha): 80
- Plant response rating ([11]; 31 g ai/ha): 65
- Plant response rating ([11]; 62 g ai/ha): 50
- Plant response rating ([11]; 125 g ai/ha): 70
- Plant response rating ([11]; 250 g ai/ha): 98
- Plant response rating ([12]; 31 g ai/ha): 70
- Plant response rating ([12]; 62 g ai/ha): 100
- Plant response rating ([12]; 125 g ai/ha): 100
- Plant response rating ([12]; 250 g ai/ha): 100
- Plant response rating ([13]; 31 g ai/ha): 30
- Plant response rating ([13]; 62 g ai/ha): 50
- Plant response rating ([13]; 125 g ai/ha): 90
- Plant response rating ([13]; 250 g ai/ha): 100
- Plant response rating ([14]; 31 g ai/ha): 90
- Plant response rating ([14]; 62 g ai/ha): 100
- Plant response rating ([14]; 125 g ai/ha): 100
- Plant response rating ([14]; 250 g ai/ha): 100
- Plant response rating ([15]; 31 g ai/ha): 0
- Plant response rating ([15]; 62 g ai/ha): 0
- Plant response rating ([15]; 125 g ai/ha): 0
- Plant response rating ([15]; 250 g ai/ha): 30
- Plant response rating ([16]; 31 g ai/ha): 20
- Plant response rating ([16]; 62 g ai/ha): 70
- Plant response rating ([16]; 125 g ai/ha): 75
- Plant response rating ([16]; 250 g ai/ha): 95
- Plant response rating ([17]; 31 g ai/ha): 90
- Plant response rating ([17]; 62 g ai/ha): 90
- Plant response rating ([17]; 125 g ai/ha): 100
- Plant response rating ([17]; 250 g ai/ha): 90
- Plant response rating ([18]; 31 g ai/ha): 15
- Plant response rating ([18]; 62 g ai/ha): 20
- Plant response rating ([18]; 125 g ai/ha): 50
- Plant response rating ([18]; 250 g ai/ha): 70
- Plant response rating ([19]; 31 g ai/ha): 35
- Plant response rating ([19]; 62 g ai/ha): 60
- Plant response rating ([19]; 125 g ai/ha): 70
- Plant response rating ([19]; 250 g ai/ha): 85
- Plant response rating ([20]; 31 g ai/ha): 90
- Plant response rating ([20]; 62 g ai/ha): 100
- Plant response rating ([20]; 125 g ai/ha): 100
- Plant response rating ([20]; 250 g ai/ha): 100
